Literature values as cited in patent US20210023267A1, “POLYMER-PERMEATED GRAFTS AND METHODS OF MAKING AND USING THE SAME” (BIOAESTHETICS CORPORATION, priority 2018, published 2021).
≈ marks a conversion by molar mass, not a printed value. Where two headings read alike, the source gives them in different places.

Test system: S. aureus

CN[C@H](CC(C)C)C(=O)N[C@H]1C(=O)N[C@@H](CC(N)=O)C(=O)N[C@H]2C(=O)N[C@H]3C(=O)N[C@H](C(=O)N[C@H](C(=O)O)c4cc(O)cc(O)c4-c4cc3ccc4O)[C@H](O)c3ccc(c(Cl)c3)Oc3cc2cc(c3O[C@@H]2O[C@H](CO)[C@@H](O)[C@H](O)[C@H]2O[C@H]2C[C@](C)(N)[C@H](O)[C@H](C)O2)Oc2ccc(cc2Cl)[C@H]1O [vancomycin]
minimum inhibitory concentration (S. aureus): 1 µg/mL (≈ 0.69 µM)
minimum inhibitory concentration (S. aureus strains with complete resistance to vancomycin): 16 µg/mL (≈ 11 µM)
